This note sets out measurements from patent US12649727B2, “EFGR inhibitor, preparation method therefor and application thereof” (Abbisko Therapeutics Co., Ltd, priority 2020, dated 2026).

Each structure is given as a SMILES string.

Format in all cases: cell-based
In assay [1] the target is Ba/F3 EGFR-D770-N771ins_SVD (Homo sapiens, UniProt P00533, DUP768-770, cells depend on it). Kind of assay: Proliferation experiment of Ba/F3 cell line, EGFR-D770-N771ins_SVD (CellTiter-Glo). The note with it: cultured for 72 hrs with compound, CTG analysis, read-out: Ba/F3 EGFR-D770-N771ins_SVD IC50. The procedure: (§1) Proliferation Experiment of Ba/F3 Cell Line
(§2) (I) Reagents and Materials
(§3) • Fetal bovine serum FBS (GBICO, Cat #10099-141); • CellTiter-Glo® luminescent cell viability assay kit (Promega, Cat #G7572); • Black transparent flat-bottom 96 well plate (Corning®, Cat #3603). (II) Instruments • SpectraMax multi-label microplate reader MD, 2104-0010A; • Carbon dioxide incubator, Thermo Scientific 3100 series; • Biological safety cabinet, Thermo Scientific, 1300 series model A2; • Inverted microscope, Olympus, CKX41SF; • Siemens refrigerator KK25E76TI. (III) Cell Lines and Culture Conditions
(§4) (IV) Experimental Procedures 1. Cell Culture and Inoculation: • (1) Cells in the logarithmic growth phase were harvested and counted using a […]. Cell viability was detected by Trypan Blue Dye Exclusion Method to ensure cell viability above 90%. • (2) The cell concentration was adjusted to reach a desired final density; 90 μL of cell suspension was added to the 96-well plate. • (3) The cells were incubated overnight in the 96-well plate at 37° C., 5% CO2 and at 95% humidity.
(§5) 2. T0 Reference Data: • (1) 10 μL PBS was added to each well of the TO plate containing the cells. • (2) The CTG reagent was thawed and the cell plate was equilibrated to room temperature for 30 min. • (3) An equal volume of CTG solution was added to each well. • (4) The cells were lysed by shaking on an orbital shaker for 5 min. • (5) The cell plate was left at room temperature for 20 min to stabilize the luminescence signal. • (6) The fluorescence signal values of TO were read. 3. Dilution and Addition of Compounds • (1) According to the compound information table, a corresponding volume of DMSO was added to the corresponding compound powder to prepare a 10 mM stock solution. • (2) A 1000-fold, 3.16-fold-diluted compound solution was prepared. • (3) The 1000× diluted compound solution was diluted 100-fold with PBS to prepare a 10-fold compound solution with a maximum concentration of […], including 9 concentrations, with 3.16-fold dilution, and 10 μL of the medicament solution was added to each well of the 96-well plate to seed the cells. Triplicate wells were set for each compound concentration, with a final concentration of DMSO being 0.1%. • (4) The cells were placed in the 96-well plate filled with the medicament at 37° C., 5% CO2 and at 95% humidity, and cultured for 72 hrs before CTG analysis. 4. Fluorescence Signal Reading • (1) The CTG reagent was thawed and the cell plate was equilibrated to room temperature for 30 min. • (2) An equal volume of CTG solution was added to each well. • (3) The cells were lysed by shaking on an orbital shaker for 5 min. • (4) The cell plate was left at room temperature for 20 min to stabilize the fluorescence signal. • (5) The fluorescence values were read. 5. Data Processing
(§6) Data were analyzed using GraphPad Prism 7.0 software and fitted data were regressed using non-linear S-curves to obtain dose-response curves from which IC50 values (in nM) were calculated.
On the technique in general: ATP-based viability assays read luminescence as a measure of living cells.

For another assay, the system named is A431 (EGFR-WT). Kind of assay: Proliferation experiment, A431 cell line (CellTiter-Glo). The note with it: Homo sapiens, A-431; A431 cells, cultured for 72 hrs with compound, CTG analysis. The procedure:
[The procedure below names another cell line; the source lists this cell line under the same test.] as §1, §2, §3, §4, §5, §6

Assay [2] deals with Ba/F3 EGFR-V769_D770insASV (Homo sapiens, UniProt P00533, DUP767-769, cells depend on it). Put plainly: Proliferation experiment of Ba/F3 cell line, EGFR-V769_D770insASV (CellTiter-Glo). Particulars: cultured for 72 hrs with compound, CTG analysis, read-out: Ba/F3 EGFR-V769_D770insASV IC50. The procedure: as §1, §2, §3, §4, §5, §6
Chain of Ba/F3 EGFR-V769_D770insASV (P00533 with tags, fused parts or gaps DUP767-769): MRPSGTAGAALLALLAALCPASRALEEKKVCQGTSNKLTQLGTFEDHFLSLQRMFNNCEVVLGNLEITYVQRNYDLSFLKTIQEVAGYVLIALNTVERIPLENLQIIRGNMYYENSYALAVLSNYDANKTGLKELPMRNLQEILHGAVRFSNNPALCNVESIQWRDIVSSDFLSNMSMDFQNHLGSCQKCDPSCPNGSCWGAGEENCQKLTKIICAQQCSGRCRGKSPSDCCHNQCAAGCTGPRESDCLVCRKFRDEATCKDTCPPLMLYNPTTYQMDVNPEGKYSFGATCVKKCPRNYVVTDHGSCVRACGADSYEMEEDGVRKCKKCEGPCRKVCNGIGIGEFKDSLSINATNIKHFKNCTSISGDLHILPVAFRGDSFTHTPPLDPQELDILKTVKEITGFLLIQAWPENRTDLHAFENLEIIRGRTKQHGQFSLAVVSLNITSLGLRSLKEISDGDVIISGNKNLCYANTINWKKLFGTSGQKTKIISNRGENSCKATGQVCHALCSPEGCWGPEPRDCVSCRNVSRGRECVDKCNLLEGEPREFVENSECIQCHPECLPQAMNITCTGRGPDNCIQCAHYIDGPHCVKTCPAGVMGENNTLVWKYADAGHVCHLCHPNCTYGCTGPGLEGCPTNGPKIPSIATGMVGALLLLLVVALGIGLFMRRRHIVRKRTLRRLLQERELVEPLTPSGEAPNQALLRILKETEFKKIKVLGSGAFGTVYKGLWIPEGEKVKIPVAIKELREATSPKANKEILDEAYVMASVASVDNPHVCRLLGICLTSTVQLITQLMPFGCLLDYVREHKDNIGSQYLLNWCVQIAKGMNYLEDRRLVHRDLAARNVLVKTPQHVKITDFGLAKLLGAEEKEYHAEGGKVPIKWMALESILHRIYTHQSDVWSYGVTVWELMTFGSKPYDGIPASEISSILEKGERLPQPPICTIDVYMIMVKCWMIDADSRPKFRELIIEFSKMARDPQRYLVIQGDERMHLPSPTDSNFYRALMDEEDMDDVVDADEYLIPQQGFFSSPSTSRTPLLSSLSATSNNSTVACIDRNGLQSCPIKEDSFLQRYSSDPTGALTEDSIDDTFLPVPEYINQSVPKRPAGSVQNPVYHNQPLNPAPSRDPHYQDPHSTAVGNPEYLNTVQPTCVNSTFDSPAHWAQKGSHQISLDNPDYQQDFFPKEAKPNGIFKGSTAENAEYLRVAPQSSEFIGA

Chain of Ba/F3 EGFR-D770-N771ins_SVD (P00533 with tags, fused parts or gaps DUP768-770): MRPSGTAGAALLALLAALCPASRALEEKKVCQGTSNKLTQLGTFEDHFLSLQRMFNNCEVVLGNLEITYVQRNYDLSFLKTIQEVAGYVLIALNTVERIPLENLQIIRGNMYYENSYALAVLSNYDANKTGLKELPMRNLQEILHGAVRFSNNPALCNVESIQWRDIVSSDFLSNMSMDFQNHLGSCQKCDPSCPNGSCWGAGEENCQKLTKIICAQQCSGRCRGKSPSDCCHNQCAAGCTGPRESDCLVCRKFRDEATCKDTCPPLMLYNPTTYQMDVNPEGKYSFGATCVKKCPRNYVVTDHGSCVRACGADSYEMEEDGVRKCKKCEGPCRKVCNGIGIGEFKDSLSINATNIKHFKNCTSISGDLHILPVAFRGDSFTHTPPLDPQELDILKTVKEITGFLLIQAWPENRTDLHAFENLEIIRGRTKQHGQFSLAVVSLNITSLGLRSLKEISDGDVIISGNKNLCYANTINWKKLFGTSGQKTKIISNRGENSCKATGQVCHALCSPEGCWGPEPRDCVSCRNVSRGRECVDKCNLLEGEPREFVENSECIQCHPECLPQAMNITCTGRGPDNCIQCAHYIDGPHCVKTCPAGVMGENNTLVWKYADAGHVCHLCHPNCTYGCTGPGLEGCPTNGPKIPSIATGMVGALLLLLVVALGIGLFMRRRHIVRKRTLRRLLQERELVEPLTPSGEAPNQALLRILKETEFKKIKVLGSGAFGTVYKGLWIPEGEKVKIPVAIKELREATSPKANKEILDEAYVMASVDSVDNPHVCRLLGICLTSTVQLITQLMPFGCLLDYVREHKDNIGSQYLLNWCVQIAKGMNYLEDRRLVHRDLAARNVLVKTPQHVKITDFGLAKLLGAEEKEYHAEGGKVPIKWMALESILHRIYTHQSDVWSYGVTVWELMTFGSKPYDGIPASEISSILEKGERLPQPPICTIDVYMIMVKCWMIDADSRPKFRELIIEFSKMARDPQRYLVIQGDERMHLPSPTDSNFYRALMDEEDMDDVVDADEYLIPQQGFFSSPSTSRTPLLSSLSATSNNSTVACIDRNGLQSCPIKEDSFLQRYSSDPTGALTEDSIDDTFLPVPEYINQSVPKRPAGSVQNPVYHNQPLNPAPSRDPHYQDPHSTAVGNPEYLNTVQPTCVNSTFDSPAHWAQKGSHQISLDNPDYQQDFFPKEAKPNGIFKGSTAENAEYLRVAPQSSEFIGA

Regarding `C=CC(=O)Nc1cc2c(Nc3cc(-c4ncc(F)cc4F)ccc3F)ncnc2cc1OCCCN1CCOCC1` [Example 2, N-(4-((5-(3,5-difluoropyridin-2-yl)-2-fluorophenyl)amino)-7-(3-morpholinopropoxy)quinazolin-6-yl)acrylamide], the GI50 in assay [1] turned out to be 121 nM.

`C=CC(=O)Nc1cc2c(Nc3cccc(-c4ccc(F)cc4F)c3)ncnc2cc1C#CC(C)(C)N(C)C` [Example 9, N-(4-((2′,4′-difluoro-[1,1′-biphenyl]-3-yl)amino)-7-(3-(dimethylamino)-3-methylbut-1-yn-1-yl)quinazolin-6-yl)acrylamide]: the IC50 (usually the concentration needed to halve the response being measured) in the assay with A431 (EGFR-WT) amounted to 625 nM. Moreover, the GI50 in assay [1] was determined as 40.1 nM.

Regarding `C=CC(=O)Nc1cc2c(Nc3cc(-c4ccc(F)cc4F)ccc3F)ncnc2cc1OCCN1CCOCC1` [Example 10, N-(7-(2-morpholinoethoxy)-4-((2′,4,4′-trifluoro-[1,1′-biphenyl]-3-yl)amino)quinazolin-6-yl)acrylamide], in the assay on A431 (EGFR-WT), the IC50 came out at 625 nM. Moreover, the GI50 in assay [1] amounted to 28.7 nM.

Turning to `C=CC(=O)Nc1cc2c(Nc3cccc(-c4ccc(F)cc4F)c3)ncnc2cc1C#CC(C)(C)N1CCN(C)CC1` [Example 12, N-(4-((2′,4′-difluoro-[1,1′-biphenyl]-3-yl)amino)-7-(3-methyl-3-(4-methylpiperazin-1-yl)but-1-yn-1-yl)quinazolin-6-yl)acrylamide], the IC50 in the assay on A431 (EGFR-WT) came to 624 nM. In addition, in assay [1], the GI50 was 32.3 nM.

In the case of `C=CC(=O)Nc1cc2c(Nc3cccc(-c4ccc(F)cn4)c3)ncnc2cc1OCCCN1CCOCC1` [Example 13, N-(4-((3-(5-fluoropyridin-2-yl)phenyl)amino)-7-(3-morpholinopropoxy)quinazolin-6-yl)acrylamide], the IC50 in the assay on A431 (EGFR-WT) came to 625 nM. For the same compound, the GI50 in assay [1] is 105 nM.

Regarding `C=CC(=O)Nc1cc2c(Nc3cccc(-c4ncc(F)cc4F)c3)ncnc2cc1OCCN1CCOCC1` [Example 16, N-(4-((3-(3,5-difluoropyridin-2-yl)phenyl)amino)-7-(2-morpholinoethoxy)quinazolin-6-yl)acrylamide], in the assay on A431 (EGFR-WT), the IC50 turned out to be 372 nM. Also, the GI50 in assay [1] turned out to be 34 nM.

With `C=CC(=O)Nc1cc2c(Nc3cc(-c4ncc(F)cc4F)ccc3F)ncnc2cc1OCCN1CCOCC1` [Example 18, N-(4-((5-(3,5-difluoropyridin-2-yl)-2-fluorophenyl)amino)-7-(2-morpholinoethoxy)quinazolin-6-yl)acrylamide], the GI50 in assay [1] came out at 129 nM.

As to `C=CC(=O)Nc1cc2c(Nc3cc(-c4ccc(F)cn4)ccc3F)ncnc2cc1OCCCN1CCOCC1` [Example 23, N-(4-((2-fluoro-5-(5-fluoropyridin-2-yl)phenyl)amino)-7-(3-morpholinopropoxy)quinazolin-6-yl)acrylamide], the GI50 in assay [1] was found to be 261 nM.

With `C=CC(=O)Nc1cc2c(Nc3ccnc(-c4ccccc4F)c3)ncnc2cc1OCC(F)(F)F` [Example 84, N-(4-((2-(2-fluorophenyl)pyridin-4-yl)amino)-7-(2,2,2-trifluoroethoxy)quinazolin-6-yl)acrylamide], in the assay on A431 (EGFR-WT), the IC50 was 1780 nM. Besides, the GI50 in assay [2] was 3.2 nM.

As for `C=CC(=O)Nc1cc2c(Nc3ccnc(-c4ccccc4F)c3)ncnc2cc1OCCOC` [Example 85, N-(4-((2-(2-fluorophenyl)pyridin-4-yl)amino)-7-(2-methoxyethoxy)quinazolin-6-yl)acrylamide], the IC50 in the assay with A431 (EGFR-WT) was determined as 1530 nM. Besides, in assay [2], the GI50 was found to be 3 nM.

Turning to `C=C(F)C(=O)Nc1cc2c(Nc3ccnc(-c4ccccc4F)c3)ncnc2cc1OCCOC` [Example 89, 2-fluoro-N-(4-((2-(2-fluorophenyl)pyridin-4-yl)amino)-7-(2-methoxyethoxy)quinazolin-6-yl)acrylamide], the IC50 in the assay on A431 (EGFR-WT) came to 112 nM. In addition, in assay [2], the GI50 is 12.8 nM.

As to `C=C(F)C(=O)Nc1cc2c(Nc3ccnc(-c4ccccc4F)c3)ncnc2cc1N1CCN(C)CC1` [Example 101, 2-fluoro-N-(4-((2-(2-fluorophenyl)pyridin-4-yl)amino)-7-(4-methylpiperazin-1-yl)quinazolin-6-yl)acrylamide], the concentration for half-maximal inhibition (IC50) in the assay on A431 (EGFR-WT) came to 240 nM. Also, in assay [2], the GI50 amounted to 20.8 nM.

As for `C=C(F)C(=O)Nc1cc2c(Nc3ccnc(-c4ccccc4F)c3)ncnc2cc1N1CC(OC)C1` [Example 104, 2-fluoro-N-(4-((2-(2-fluorophenyl)pyridin-4-yl)amino)-7-(3-methoxyazetidin-1-yl)quinazolin-6-yl)acrylamide], in the assay on A431 (EGFR-WT), the IC50 is 1190 nM. Moreover, in assay [2], the GI50 came out at 30 nM.

Consider `C=C(F)C(=O)Nc1cc2c(Nc3ccnc(-c4ccccc4F)c3)ncnc2cc1N1CC(F)C1` [Example 106, 2-fluoro-N-(7-(3-fluoroazetidin-1-yl)-4-((2-(2-fluorophenyl)pyridin-4-yl)amino)quinazolin-6-yl)acrylamide], for which the IC50 with A431 (EGFR-WT) came to 1640 nM. In addition, in assay [2], the GI50 turned out to be 40.9 nM.

`C=C(F)C(=O)Nc1cc2c(Nc3ccnc(-c4ccccc4F)c3)ncnc2cc1N1CCC(F)(F)C1` [Example 108, N-(7-(3,3-difluoropyrrolidin-1-yl)-4-((2-(2-fluorophenyl)pyridin-4-yl)amino)quinazolin-6-yl)-2-fluoroacrylamide]: the GI50 in assay [2] amounted to 29.9 nM.

Take `C=C(F)C(=O)Nc1cc2c(Nc3ccnc(-c4ccccc4F)c3)ncnc2cc1N1CCC(F)CC1` [Example 109, 2-fluoro-N-(4-((2-(2-fluorophenyl)pyridin-4-yl)amino)-7-(4-fluoropiperidin-1-yl)quinazolin-6-yl)acrylamide]: the IC50 with A431 (EGFR-WT) was 159 nM. In addition, the GI50 in assay [2] was 25.8 nM.

In the case of `C=C(F)C(=O)Nc1cc2c(Nc3ccnc(-c4ccccc4F)c3)ncnc2cc1N1CCC(F)(F)CC1` [Example 110, N-(7-(4,4-difluoropiperidin-1-yl)-4-((2-(2-fluorophenyl)pyridin-4-yl)amino)quinazolin-6-yl)-2-fluoroacrylamide], the IC50 in the assay with A431 (EGFR-WT) was 703 nM. For the same compound, in assay [2], the GI50 came to 52.6 nM.

For the compound `C=CC(=O)Nc1cc2c(Nc3ccnc(-c4ccccc4F)c3)ncnc2cc1O[C@@H]1CCN(C2CN(C)C2)C1` [Example 115, (R)-N-(4-((2-(2-fluorophenyl)pyridin-4-yl)amino)-7-((1-(1-methylazetidin-3-yl)pyrrolidin-3-yl)oxy)quinazolin-6-yl)acrylamide], the IC50 with A431 (EGFR-WT) was 23.2 nM. Further, the GI50 in assay [2] came to 7.6 nM.

Turning to `C=CC(=O)Nc1cc2c(Nc3ccnc(-c4ccccc4F)c3)ncnc2cc1O[C@@H]1CCN(C2CCOCC2)C1` [Example 117, (R)-N-(4-((2-(2-fluorophenyl)pyridin-4-yl)amino)-7-((1-(tetrahydro-2H-pyran-4-yl)pyrrolidin-3-yl)oxy)quinazolin-6-yl)acrylamide], the IC50 in the assay on A431 (EGFR-WT) was 988 nM. Further, the GI50 in assay [2] was found to be 2.9 nM.

Regarding `C=C(F)C(=O)Nc1cc2c(Nc3ccnc(-c4ccccc4F)c3)ncnc2cc1O[C@@H]1CCN(C2CN(C)C2)C1` [Example 119, (R)-2-fluoro-N-(4-((2-(2-fluorophenyl)pyridin-4-yl)amino)-7-((1-(1-methylazetidin-3-yl)pyrrolidin-3-yl)oxy)quinazolin-6-yl)acrylamide], in the assay with A431 (EGFR-WT), the IC50 amounted to 10.2 nM. In addition, the GI50 in assay [2] came to 3.4 nM.

Regarding `C=C(F)C(=O)Nc1cc2c(Nc3ccnc(-c4ccccc4F)c3)ncnc2cc1O[C@@H]1CCN(C2CCN(C)CC2)C1` [Example 120, (R)-2-fluoro-N-(4-((2-(2-fluorophenyl)pyridin-4-yl)amino)-7-((1-(1-methylpiperidin-4-yl)pyrrolidin-3-yl)oxy)quinazolin-6-yl)acrylamide], the IC50 in the assay on A431 (EGFR-WT) was 6 nM. The GI50 in assay [2] turned out to be 7.1 nM.
